# Experimental data reported in patent US20220356174A1, “PYRIDIN-2-ONE COMPOUNDS USEFUL AS SMARCA2 ANTAGONISTS” (Epizyme, Inc., priority 2018, published 2022).
# Tests used:
# [1] = system: various lung cancer cell lines; test: Long term proliferation (LTP) assay in various cancer cell lines; format: cell-based
# Procedure: The following cell lines were evaluated in an adherent cell line proliferation assay described herein: A549, HCC15, COV434, NCIH460, NCIH358, NCIH358-SMARCA2, NCIH358-SMARCA, NCIH1703, NCIH838, NCIH322, NCIH2122, NCIH2023, NCIH1355, NCIH1693, NCIH441, NCIH2030, NCIH1573, NCIH1373, NCIH1650, and NCIH1693. Plating densities for each cell line were determined based on growth curves (measured by ATP viability) and density over a 7 day timecourse. On the day before compound treatment, cells were plated in either 96-well plates in triplicate (for the day 0-7 timecourse) or 6-well plates (for replating on day 7 for the remainder of the timecourse). On Day 0, cells were either untreated, DMSO-treated, or treated with increasing concentrations of Compound 139 up to 10 μM. Plates were read on Day 0, Day 4, and Day 7 using a luminescent cell viability assay, with compound/media being replenished on Day 4. On Day 7, the 6-well plates were trypsinized, centrifuged, and resuspended in fresh media for counting by Vi-Cell. Cells from each treatment were replated at the original density in 96-well plates in triplicate. Cells were allowed to adhere to the plate overnight, and cells were treated as on Day 0. On Day 7, 11 and 14, plates were read using a luminescent cell viability assay, with compound/media being replenished on Day 11. Averages of triplicates were used to plot proliferation over the timecourse, and calculate IC50 values.
# The following cell lines were evaluated in an adherent cell line proliferation assay described herein: NCIH522, CORL23, NCIH1693, NCIH1838, HCC1588, NCIH1435, NCIH2085, HCC827, NCIH1792, NCIH596, NCIH1568, NCIH1793, NCIH2126, CORL105, NCIH1573, NCIH1693, NCIH1395, HCC44, NCIH2126, NCIH520, NCIH1373, NCIH2172, NCIH23, HCT116, […], NCIH2347, NCIH2110, NCIH647, NCIH1437, AGS, KMS11, BT549, HUPT4, NCIH1048, TE10, and TE14. Cell densities were determined by growth curve as per protocol 1. For the proliferation assay, on Day 0, cells were either untreated, DMSO-treated, or treated with increasing concentrations of Compound 139 up to 10 μM. Plates were read on Day 0, Day 4, and Day 7 using luminescent cell viability assay. On Day 7, the 6-well plates were trypsinized, centrifuged, and resuspended in fresh media for counting by Vi-Cell. Cells from each treatment were replated at the original density in 96-well plates in triplicate. Cells were treated with compound as on Day 0. On Day 7, 11 and 14, plates were read using a luminescent cell viability assay. Averages of triplicates were used to plot proliferation over the timecourse, and calculate IC50 values.
# A549 cells [2] = test: Long term proliferation (LTP) assay, day 15 IC50 in A549 cells; format: cell-based; details: Homo sapiens, 360 h
# A549 cells [3] = test: High-throughput proliferation (HTP) assay for A549 cells (CellTiter-Glo, 7 days); format: cell-based; details: Homo sapiens, 168 h, read-out: A549 SMARCA2 IC50
# Outline: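 A549 cells plated at 62.5 cells/well in F12K + 10% HI-FBS onto pre-dispensed compound, grown 7 days at 37° C., 5% CO2. Viability by CellTiter-Glo luminescence after 30 min at RT; EC50/IC50 from DMSO (0%) and 10 μM Doxorubicin (100%) inhibition controls.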
# FL-SMARCA4 = FL-SMARCA4 (Homo sapiens, UniProt P51532); test: SMARCA4 ATPase activity assay (ADP-Glo, chicken mononucleosome substrate); details: ATPase assay, enzyme 5 nM, ATP 250 uM, chicken mononucleosome 10 nM, 30 min preincubation
# FL-SMARCA4, sequence (P51532 whole entry): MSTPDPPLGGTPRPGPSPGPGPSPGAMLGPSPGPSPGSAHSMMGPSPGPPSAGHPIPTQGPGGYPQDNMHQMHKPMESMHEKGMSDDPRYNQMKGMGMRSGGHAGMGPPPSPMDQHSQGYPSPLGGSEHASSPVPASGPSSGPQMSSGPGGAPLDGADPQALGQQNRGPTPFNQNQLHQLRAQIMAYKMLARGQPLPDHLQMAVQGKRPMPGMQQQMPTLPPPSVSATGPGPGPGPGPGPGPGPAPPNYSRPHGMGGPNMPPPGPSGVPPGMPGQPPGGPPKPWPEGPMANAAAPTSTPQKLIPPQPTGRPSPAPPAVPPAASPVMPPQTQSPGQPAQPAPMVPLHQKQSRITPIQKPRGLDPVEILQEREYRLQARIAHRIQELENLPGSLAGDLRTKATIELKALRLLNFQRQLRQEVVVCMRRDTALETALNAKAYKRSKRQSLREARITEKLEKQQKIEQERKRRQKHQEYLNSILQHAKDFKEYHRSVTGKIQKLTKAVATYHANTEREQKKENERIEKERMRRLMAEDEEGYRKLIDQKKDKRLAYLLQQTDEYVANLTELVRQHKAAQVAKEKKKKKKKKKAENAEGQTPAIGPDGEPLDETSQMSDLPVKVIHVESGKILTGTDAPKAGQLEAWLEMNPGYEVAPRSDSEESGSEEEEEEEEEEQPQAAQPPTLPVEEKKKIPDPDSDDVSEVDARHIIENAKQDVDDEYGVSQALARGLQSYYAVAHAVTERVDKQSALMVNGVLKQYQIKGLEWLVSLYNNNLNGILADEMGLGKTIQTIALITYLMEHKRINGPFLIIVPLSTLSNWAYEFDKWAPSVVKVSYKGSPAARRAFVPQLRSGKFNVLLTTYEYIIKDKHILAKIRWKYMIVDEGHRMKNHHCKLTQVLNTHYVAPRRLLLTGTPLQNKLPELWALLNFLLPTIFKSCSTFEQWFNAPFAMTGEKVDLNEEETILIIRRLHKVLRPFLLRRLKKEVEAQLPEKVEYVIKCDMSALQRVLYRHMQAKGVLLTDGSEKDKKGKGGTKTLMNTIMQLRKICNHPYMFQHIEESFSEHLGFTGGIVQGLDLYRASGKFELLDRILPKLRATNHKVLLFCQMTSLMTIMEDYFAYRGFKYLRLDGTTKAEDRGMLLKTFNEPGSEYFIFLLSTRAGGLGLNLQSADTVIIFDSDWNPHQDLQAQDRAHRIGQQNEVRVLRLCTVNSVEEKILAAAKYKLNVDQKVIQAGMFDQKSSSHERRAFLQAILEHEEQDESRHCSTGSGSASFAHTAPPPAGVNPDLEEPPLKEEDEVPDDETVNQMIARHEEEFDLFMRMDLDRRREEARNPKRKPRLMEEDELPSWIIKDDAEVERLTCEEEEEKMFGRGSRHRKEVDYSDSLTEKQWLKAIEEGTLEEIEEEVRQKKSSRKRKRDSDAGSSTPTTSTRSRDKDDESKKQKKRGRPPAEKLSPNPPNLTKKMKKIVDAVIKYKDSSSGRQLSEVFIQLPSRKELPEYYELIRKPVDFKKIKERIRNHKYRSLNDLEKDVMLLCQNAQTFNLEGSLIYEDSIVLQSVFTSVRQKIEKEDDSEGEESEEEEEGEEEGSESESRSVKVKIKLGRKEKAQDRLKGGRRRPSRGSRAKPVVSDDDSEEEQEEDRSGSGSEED
# [4] = Homo sapiens, A549, A549, SMARCA4 protein Absent, Lung NSCLC adenocarcinoma
# [5] = Homo sapiens, COR-L105, CORL105, SMARCA4 protein Present, Lung NSCLC adenocarcinoma
# [6] = Homo sapiens, HCT-116, HCT116, SMARCA4 protein Present, Colon Cancer
# [7] = Homo sapiens, NCI-H358, NCIH358, SMARCA4 protein Present, Lung NSCLC bronchioloalveolar adenocarcinoma
# [8] = Homo sapiens, NCI-H358, NCIH358 SMARCA4, SMARCA4 protein Absent, Lung NSCLC bronchioloalveolar adenocarcinoma
# [9] = Homo sapiens, NCI-H460, NCIH460, SMARCA4 protein Present, Lung NSCLC large cell carcinoma
# [10] = Homo sapiens, NCI-H522, NCIH522, SMARCA4 protein Absent, Lung NSCLC adenocarcinoma
# [11] = Homo sapiens, NCI-H1299, NCIH1299, Lung NSCLC non small cell carcinoma
# [12] = NCI-H1568, NCIH1568, SMARCA4 protein Absent, Lung NSCLC adenocarcinoma
# [13] = NCIH2085, SMARCA4 protein Present, Lung NSCLC adenocarcinoma
# [14] = RERFLCAI, SMARCA4 protein Absent, Lung NSCLC squamous cell carcinoma
smiles,measurement,setting,value
"N#Cc1cc(C(=O)Nc2cc(F)c(=O)n(CC(F)F)c2)sc1C(F)(F)F [Compound 82c, 4-cyano-N-[1-(2,2-difluoroethyl)-5-fluoro-6-oxopyridin-3-yl]-5-(trifluoromethyl)thiophene-2-carboxamide]",IC50,[1]; [4],259 nM
same,IC50,[1]; [5],170 nM
same,IC50,[1]; [6],142 nM
same,IC50,[1]; [7],1700 nM
same,IC50,[1]; [8],383 nM
same,IC50,[1]; [9],10000 nM
same,IC50,[1]; [10],9700 nM
same,IC50,[1]; [11],1700 nM
same,IC50,"[1]; Homo sapiens, NCI-H1581, NCIH1581, SMARCA4 protein Absent, Lung NSCLC large cell carcinoma",10000 nM
same,IC50,[1]; [12],10000 nM
same,IC50,[1]; [13],10000 nM
same,IC50,[1]; [14],26 nM
same,IC50,A549 cells [2],259 nM
same,IC50,A549 cells [3],589 nM
same,IC50,"FL-SMARCA4; FL-SMARCA4 IC>50, Table 3c.2",66.1 nM
N#Cc1sc(C(=O)Nc2cc(F)c(=O)n(CCF)c2)cc1Cl [Compound 139],IC50,"[1]; HCC15, HCC15, SMARCA4 protein Absent, Lung NSCLC squamous cell carcinoma",677 nM
same,IC50,"[1]; HCC1588, HCC1588, SMARCA4 protein Present, Lung NSCLC squamous cell carcinoma",906 nM
same,IC50,[1]; [4],316 nM
same,IC50,"[1]; Homo sapiens, COR-L23, CORL23, SMARCA4 protein Present, Lung NSCLC large cell carcinoma",1700 nM
same,IC50,[1]; [5],95 nM
same,IC50,"[1]; Homo sapiens, Calu-6, CALU6, SMARCA4 protein Present, Lung NSCLC undifferentiated carcinoma",1210 nM
same,IC50,"[1]; Homo sapiens, HCC44, HCC44, SMARCA4 protein Present, Lung NSCLC adenocarcinoma",1270 nM
same,IC50,"[1]; Homo sapiens, HCC827, HCC827, SMARCA4 protein Present, Lung NSCLC adenocarcinoma (bronchioalveolar features)",10000 nM
same,IC50,[1]; [6],169 nM
same,IC50,"[1]; Homo sapiens, NCI-H23, NCIH23, SMARCA4 protein Absent, Lung NSCLC non small cell carcinoma",1100 nM
same,IC50,[1]; [7],10000 nM
same,IC50,"[1]; Homo sapiens, NCI-H358, NCIH358 SMARCA2, SMARCA4 protein Present, Lung NSCLC bronchioloalveolar adenocarcinoma",10000 nM
same,IC50,[1]; [8],347 nM
same,IC50,"[1]; Homo sapiens, NCI-H441, NCIH441, SMARCA4 protein Present, Lung NSCLC adenocarcinoma",5200 nM
same,IC50,[1]; [9],10000 nM
same,IC50,[1]; [10],10000 nM
same,IC50,"[1]; Homo sapiens, NCI-H596, NCIH596, Lung NSCLC mixed adenosquamous carcinoma",8800 nM
same,IC50,"[1]; Homo sapiens, NCI-H810, NCIH810, SMARCA4 protein Present, Lung NSCLC large cell carcinoma",174 nM
same,IC50,"[1]; Homo sapiens, NCI-H838, NCIH838, SMARCA4 protein Present, Lung NSCLC adenocarcinoma",10000 nM
same,IC50,[1]; [11],857 nM
same,IC50,"[1]; Homo sapiens, NCI-H1395, NCIH1395, SMARCA4 protein Present, Lung NSCLC adenocarcinoma",10000 nM
same,IC50,"[1]; Homo sapiens, NCI-H1437, NCIH1437, SMARCA4 protein Present, Lung NSCLC adenocarcinoma",1500 nM
same,IC50,"[1]; Homo sapiens, NCI-H1563, NCIH1563, SMARCA4 protein Present, Lung NSCLC adenocarcinoma",2300 nM
same,IC50,"[1]; Homo sapiens, NCI-H1573, NCIH1573, SMARCA4 protein Absent, Lung NSCLC adenocarcinoma",504 nM
same,IC50,"[1]; Homo sapiens, NCI-H1650, NCIH1650, SMARCA4 protein Present, Lung NSCLC bronchioalveolar carcinoma",5000 nM
same,IC50,"[1]; Homo sapiens, NCI-H1693, NCIH1693, SMARCA4 protein Absent, Lung NSCLC adenocarcinoma",101 nM
same,IC50,"[1]; Homo sapiens, NCI-H1792, NCIH1792, SMARCA4 protein Present, Lung NSCLC adenocarcinoma",10000 nM
same,IC50,"[1]; Homo sapiens, NCI-H1793, NCIH1793, SMARCA4 protein Present, Lung NSCLC adenocarcinoma",890 nM
same,IC50,"[1]; Homo sapiens, NCI-H1838, NCIH1838, SMARCA4 protein Present, Lung NSCLC non-small cell lung cancer",587 nM
same,IC50,"[1]; Homo sapiens, NCI-H1975, NCIH1975, SMARCA4 protein Present, Lung NSCLC non small cell carcinoma",10000 nM
same,IC50,"[1]; Homo sapiens, NCI-H2030, NCIH2030, SMARCA4 protein Absent, Lung NSCLC non small cell carcinoma",1140 nM
same,IC50,"[1]; Homo sapiens, NCI-H2122, NCIH2122, SMARCA4 protein Present, Lung NSCLC adenocarcinoma",2800 nM
same,IC50,"[1]; Homo sapiens, NCI-H2126, NCIH2126, SMARCA4 protein Present, Lung NSCLC adenocarcinoma",5500 nM
same,IC50,"[1]; Homo sapiens, NCI-H2342, NCIH2342, SMARCA4 protein Present, Lung NSCLC non-small cell lung cancer",2500 nM
same,IC50,"[1]; Homo sapiens, PANC-1, PANC1, Pancreatic Cancer ductal carcinoma",10000 nM
same,IC50,"[1]; Homo sapiens, SW900, SW900, SMARCA4 protein Present, Lung NSCLC squamous cell carcinoma",10000 nM
same,IC50,"[1]; Hs766T, Pancreatic Cancer ductal carcinoma",1000 nM
same,IC50,"[1]; NCI-H1435, NCIH1435, SMARCA4 protein Present, Lung NSCLC adenocarcinoma",443 nM
same,IC50,[1]; [12],395 nM
same,IC50,[1]; [13],314 nM
same,IC50,[1]; [14],61 nM
same,sensitivity to inhibition of SMARCA2 (IC50): cell lines with loss or absence of SMARCA4 versus cell lines with SMARCA4 protein present,"[1]; lung cancer cell lines of Table 5, FIG. 1",more sensitive
same,IC50,A549 cells [2],316 nM
same,IC50,A549 cells [3],868 nM
same,IC50,"FL-SMARCA4; FL-SMARCA4 IC50, Table 3.2",54.1 nM
